SMILES strings stand for the structures.

This test deals with PANC-1. The test is described as follows: Cytotoxicity against human PANC1 cells in nutrient deprived medium after 24 hrs. It counts as functional.
As to `COc1ccc2c(c1)O[C@@H]1c3ccc(O)cc3OC[C@H]21`, the CD100 came out at 50 µM.
As for `COc1ccc2c(c1O)O[C@@H]1c3ccc(O)cc3OC[C@H]21`, the CD100 came out at 50 µM.
The value for `COc1ccc(-c2coc3cc(O)ccc3c2=O)cc1O` [CALYCOSIN] was more than 100 µM; that for `COc1cc(O)ccc1C(=O)/C=C/c1ccc(O)cc1` was more than 100 µM.
The value for `COc1ccc(-c2coc3cc(O)cc(O)c3c2=O)c(O)c1` was more than 100 µM; that for `COc1cc2c(cc1O)O[C@H](c1ccccc1)CC2=O` was 50 µM; that for `COc1ccc2c(c1)O[C@H]1c3ccc(O)c(OC)c3OC[C@@H]21` was more than 100 µM.
Then `COc1ccc2c(C)c(-c3ccc(O)cc3O)oc2c1`, with 50 µM; and `COc1ccc(-c2coc3cc(O)cc(O)c3c2=O)cc1O` [PRATENSEIN], with more than 100 µM; and `COc1cc([C@@H]2OC[C@@H]3[C@H]2CO[C@H]3c2ccc(O)c(OC)c2)ccc1O` [(+)-PINORESINOL], with more than 100 µM.
Molecule `O=C(/C=C/c1ccccc1)c1ccc(O)cc1O` [2',4'-DIHYDROXYCHALCONE] displayed a CD100 of more than 100 µM.
Then `O=C1c2ccc(O)cc2O[C@H](c2ccccc2)[C@H]1O`, with more than 100 µM; and `O=c1[nH]cc(F)c(=O)[nH]1` [FLUOROURACIL], with more than 100 µM.
Then `O=c1c(-c2ccc(O)cc2)coc2cc(O)ccc12` [DAIDZEIN], with more than 100 µM; and `COc1c(O)cc2oc(-c3ccccc3)c(O)c(=O)c2c1O` [ALNUSIN], with more than 100 µM; and `COc1cc(C[C@H]2C(=O)OC[C@@H]2Cc2ccc(OC)c(OC)c2)ccc1O` [ARCTIGENIN], with 1 µM.
For `C=C[C@@H](c1ccccc1)c1cc(O)c(OC)cc1OC`, the CD100 is more than 100 µM.
The value for `COc1ccc([C@H]2COc3cc(O)ccc3C2=O)c(O)c1` was more than 100 µM.
Then `COc1ccc([C@H]2COc3cc(OC)ccc3C2)c(O)c1`, with 25 µM; and `O=C1C[C@@H](c2ccccc2)Oc2cc(O)c(O)c(O)c21`, with more than 100 µM; and `COc1ccc(-c2coc3cc(O)ccc3c2=O)c(O)c1` [XENOGNOSIN B], with more than 100 µM.
Then `COc1cc2c(cc1OC)[C@@H]1COc3cc(O)ccc3[C@@H]1O2` [SECUNDIFLOROL I], with more than 100 µM; and `COc1c(O)cc2c(c1O)C(=O)[C@H](O)[C@@H](c1ccccc1)O2` [ALNUSTINOL], with more than 100 µM.
In the case of `O=C1c2ccc(O)cc2O[C@H](c2ccc(O)cc2)[C@H]1O` [GARBANZOL], the CD100 was more than 100 µM.
The value for `O=C(/C=C/c1ccc(O)cc1)c1ccc(O)cc1O` [ISOLIQUIRITIGENIN] was more than 100 µM; that for `COc1cc2c(cc1O)O[C@H](c1ccccc1)[C@@H](O)C2=O` was more than 100 µM.
Take `COc1ccc(-c2coc3cc(O)cc(O)c3c2=O)cc1` [BIOCHANIN]: the CD100 is more than 100 µM.
Then `O=C1c2ccc(O)cc2OC1(O)Cc1ccc(O)cc1` (centres undefined), with more than 100 µM; and `COc1c(O)cc2c(c1O)C(=O)C[C@@H](c1ccccc1)O2` [DIHYDROOROXYLIN A], with more than 100 µM; and `COc1cc([C@H]2OC[C@H]3[C@@H]2CO[C@@H]3c2cc(OC)c(O)c(OC)c2)cc(OC)c1O` [SYRINGARESINOL], with more than 100 µM.
`COc1ccc([C@H]2COc3cc(O)ccc3C2)c(OC)c1O` [MUCRONULATOL] came in with a CD100 of more than 100 µM.
`O=C1C[C@@H](c2ccc(O)cc2)Oc2cc(O)cc(O)c21` [NARINGENIN]: the CD100 was more than 100 µM.
The value for `CC(=O)O[C@H]1C(=O)[C@@]2(C)[C@H]([C@H](OC(=O)c3ccccc3)[C@]3(O)C[C@H](OC(=O)[C@H](O)[C@@H](NC(=O)c4ccccc4)c4ccccc4)C(C)=C1C3(C)C)[C@]1(OC(C)=O)CO[C@@H]1C[C@@H]2O` [PACLITAXEL] was more than 100 µM; that for `COc1ccc(-c2coc3cc(O)ccc3c2=O)cc1` [FORMONONETIN] was more than 100 µM; that for `COc1ccc([C@H]2COc3cc(O)ccc3C2=O)c(OC)c1O` was more than 100 µM.
Then `COc1ccc([C@H]2COc3cc(O)cc(O)c3C2=O)c(O)c1`, with more than 100 µM.
Then `COc1ccc2c(c1)O[C@H]1c3ccc(O)c(O)c3OC[C@@H]21`, with 25 µM; and `O=C1C[C@@H](c2ccc(O)cc2)Oc2cc(O)ccc21` [LIQUIRTIGENIN], with more than 100 µM.
Consider `O=C1C[C@@H](c2ccccc2)Oc2cc(O)ccc21`, for which the CD100 was more than 100 µM.
The value for `COc1ccc([C@H]2COc3cc(O)ccc3C2)c(O)c1` was more than 100 µM.
Then `O=C(c1ccc(O)cc1O)[C@@H](O)Cc1ccc(O)cc1`, with more than 100 µM; and `CCO[C@@]12COc3cc(O)ccc3[C@@H]1Oc1cc(OC)ccc12`, with more than 100 µM.
The value for `COc1cc(O)ccc1[C@H]1COc2cc(O)ccc2C1` was more than 100 µM; that for `COc1ccc([C@H]2OC[C@H]3[C@@H]2CO[C@@H]3c2ccc(OC)c(OC)c2)cc1OC` [(+)-EUDESMIN] was more than 100 µM.

The values are drawn from ChEMBL document CHEMBL1140768, “Constituents of Brazilian red propolis and their preferential cytotoxic activity against human pancreatic PANC-1 cancer cell line in nutrient-deprived condition” (2008).
